Measurements published in BindingDB's records for doi:10.1016/s1074-5521(98)90117-x (Dupont Pharmaceuticals, 1998).

Biological target: HIV-1 protease (Human immunodeficiency virus, UniProt O90785)
Test: Protease Inhibtion Assay
Conditions: pH 5.5
Text: Protease inhibition fluorescence-based assay using cyclic ureas to inhibit HIV-protease.

Chain of HIV-1 protease (O90785 whole entry): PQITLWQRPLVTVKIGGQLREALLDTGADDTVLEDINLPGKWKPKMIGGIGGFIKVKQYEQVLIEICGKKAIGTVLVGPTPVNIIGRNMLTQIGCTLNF

Structure (SMILES)	Ki
Nc1cccc(CN2C(=O)N(Cc3cccc(N)c3)[C@H](Cc3ccccc3)[C@H](O)[C@@H](O)[C@H]2Cc2ccccc2)c1	0.3 nM
Nc1n[nH]c2ccc(CN3C(=O)N(Cc4ccc5ccccc5c4)[C@H](Cc4ccccc4)[C@H](O)[C@@H](O)[C@H]3Cc3ccccc3)cc12 [2-Naphthylmethyl cyclic urea]	0.023 nM
Nc1n[nH]c2ccc(CN3C(=O)N(Cc4ccc5[nH]nc(N)c5c4)[C@H](Cc4ccccc4)[C@H](O)[C@@H](O)[C@H]3Cc3ccccc3)cc12 [3-Aminoindazole, 2]	0.01 nM
CCNc1[nH]nc2ccc(CN3C(=O)N(Cc4ccc5n[nH]c(NCC)c5c4)[C@H](Cc4ccccc4)[C@H](O)[C@@H](O)[C@H]3Cc3ccccc3)cc12 [3-alkylaminoindazole cyclic urea, (Et)]	0.041 nM
Nc1n[nH]c2ccc(CN3C(=O)N(Cc4ccc5[nH]nc(N)c5c4)[C@H](Cc4ccccc4)[C@H](O)[C@@H](O)[C@H]3Cc3ccccc3)cc12 [3-alkylaminoindazole cyclic urea, (H)]	< 0.01 nM
CNc1[nH]nc2ccc(CN3C(=O)N(Cc4ccc5n[nH]c(NC)c5c4)[C@H](Cc4ccccc4)[C@H](O)[C@@H](O)[C@H]3Cc3ccccc3)cc12 [3-alkylaminoindazole cyclic urea, (Me)]	0.018 nM
CC(C)Nc1[nH]nc2ccc(CN3C(=O)N(Cc4ccc5n[nH]c(NC(C)C)c5c4)[C@H](Cc4ccccc4)[C@H](O)[C@@H](O)[C@H]3Cc3ccccc3)cc12 [3-alkylaminoindazole cyclic urea, (i-Pr)]	0.09 nM
CCCNc1[nH]nc2ccc(CN3C(=O)N(Cc4ccc5n[nH]c(NCCC)c5c4)[C@H](Cc4ccccc4)[C@H](O)[C@@H](O)[C@H]3Cc3ccccc3)cc12 [3-alkylaminoindazole cyclic urea, (n-Pr)]	0.23 nM
CCCCN1C(=O)N(Cc2ccc3[nH]nc(N)c3c2)[C@H](Cc2ccccc2)[C@H](O)[C@@H](O)[C@H]1Cc1ccccc1 [(4R,5S,6S,7R)-1-(3-Amino-1H-indazol-5-ylmethyl)-4,7-dibenzyl-3-butyl-5,6-dihydroxy-[1,3]diazepan-2-one]	0.021 nM
O=C1N(Cc2ccc3[nH]ncc3c2)[C@H](Cc2ccccc2)[C@H](O)[C@@H](O)[C@@H](Cc2ccccc2)N1Cc1ccc2[nH]ncc2c1 [(4R,5S,6S,7R)-4,7-dibenzyl-5,6-dihydroxy-1,3-bis(1H-indazol-5-ylmethyl)-1,3-diazepan-2-one]	0.018 nM
O=C1N(Cc2ccc(CO)cc2)[C@H](Cc2ccccc2)[C@H](O)[C@@H](O)[C@@H](Cc2ccccc2)N1Cc1ccc(CO)cc1 [(4R,5S,6S,7R)-4,7-dibenzyl-5,6-dihydroxy-1,3-bis({[4-(hydroxymethyl)phenyl]methyl})-1,3-diazepan-2-one]	0.31 nM
Nc1n[nH]c2ccc(CN3C(=O)N(CC4CCC4)[C@H](Cc4ccccc4)[C@H](O)[C@@H](O)[C@H]3Cc3ccccc3)cc12 [Cyclobutylmethyl cyclic urea]	0.016 nM
Nc1n[nH]c2ccc(CN3C(=O)N(CC4CC4)[C@H](Cc4ccccc4)[C@H](O)[C@@H](O)[C@H]3Cc3ccccc3)cc12 [Cyclopropylmethyl cyclic urea]	0.02 nM
Nc1n[nH]c2ccc(CN3C(=O)N(Cc4ccccc4)[C@H](Cc4ccccc4)[C@H](O)[C@@H](O)[C@H]3Cc3ccccc3)cc12 [DMP850]	0.031 nM
CCCCCCN1C(=O)N(Cc2ccc3[nH]nc(N)c3c2)[C@H](Cc2ccccc2)[C@H](O)[C@@H](O)[C@H]1Cc1ccccc1 [n-Hexyl cyclic urea]	0.13 nM
CCCCCN1C(=O)N(Cc2ccc3[nH]nc(N)c3c2)[C@H](Cc2ccccc2)[C@H](O)[C@@H](O)[C@H]1Cc1ccccc1 [n-Pentyl cyclic urea]	0.041 nM
